Data as given in patent publication US20260240869A1, “ANTIPSEUDOMONAL FUSIDIC ACID COMPOUNDS” (priority 2022, published 2026).
Values after ≈ are worked out from the molar mass of the structure shown. Read-outs that look alike come from different tables or passages of the source.

Assays:
P. aeruginosa PAO1 [1] = assay: MIC, CLSI broth microdilution, P. aeruginosa PAO1; type: cell-based, Pseudomonas aeruginosa; conditions: for MIC: Pseudomonas aeruginosa
Method: (§1) Antimicrobial Susceptibility Tests. Susceptibility testing was performed in biological triplicate, using the microdilution broth method as outlined by the Clinical and Laboratory Standards Institute. Bacteria were cultured with cation-adjusted Meuller-Hinton broth (Sigma-Aldrich; catalogue number: 90922) or Luria-Bertani (LB) broth (Lennox) in round-bottom 96-well plates (Corning; catalogue number: 3788).

E. coli MG1655 [2] = assay: MIC, E. coli MG1655; type: cell-based; conditions: Escherichia coli, MG1655; CLSI (Table 8); read-out: E. coli MG1655 MIC
Method: as §1

E. coli MG1655 [3] = assay: LC-MS/MS whole-cell accumulation assay, E. coli MG1655; type: cell-based; conditions: E. coli MG1655; accumulation of FA reported (Table 8)
Method: (§2) Accumulation Assay. The accumulation assay was performed in triplicate in batches of ten samples, with each batch containing tetracycline or ciprofloxacin as a positive control. P. aeruginosa PAO1, PAO1 A6, PA14, PA14 A40, and PA1280, and E. coli MG1655 were used in these experiments. For each replicate, 2.5 mL (E. coli) or 5 mL (P. aeruginosa) of an overnight culture was diluted into 250 mL of fresh Luria-Bertani broth (Lennox) or Tryptic Soy Broth (TSB) and grown at 37° C. with shaking to an optical density (OD600) of 0.55-0.60. The bacteria were pelleted at 3220 r.c.f. for 10 min at 4° C., and the supernatant was discarded. The pellets were resuspended in 40 mL of phosphate buffered saline (PBS) and pelleted as before, and the supernatant was discarded. The pellets were resuspended in 8.8 mL of fresh PBS and aliquoted into ten, 1.5 mL Eppendorf tubes (875 μL each). The number of colony-forming units (CFUs) was determined by a calibration curve. The samples were equilibrated at 37° C. with shaking for 5 min; compound was added (final concentration=50 μM), and then the samples were incubated at 37° C. with shaking for either 10 min. These time points were short enough to minimize metabolic and growth changes (no changes in OD600 or CFU count observed). After incubation, 800 μL of the cultures was carefully layered on 700 μL of silicone oil (9:1 AR20/Sigma High Temperature, cooled to −78° C.). Bacteria were pelleted through the oil by centrifuging at 13 000 r.c.f. for 2 min at room temperature (with the supernatant remaining above the oil); the supernatant and oil were then removed by pipetting. To lyse the samples, each pellet was dissolved in […] of water, and then, they were subjected to three (E. coli) or four (P. aeruginosa) freeze-thaw cycles of 3 min in liquid nitrogen followed by 3 min in a water bath at 65° C. P. aeruginosa samples were then treated with 50 µM DNase and RNase and incubated at 37° C. for 15 minutes. The lysates were pelleted at 13 000 r.c.f. for 2 min at room temperature, and the supernatant was collected ([…]). The debris was resuspended in 100 μL of methanol and pelleted as before. The supernatants were removed and combined with the previous supernatants collected. Finally, the remaining debris was removed by centrifuging at 20 000 r.c.f. for 10 min at room temperature. Supernatants were analyzed by LC-MS/MS.
(§3) Samples were analyzed with the 5500 QTRAP LC/MS/MS system (AB Sciex) with a 1200 series HPLC system (Agilent Technologies) including a degasser, an autosampler, and a binary pump. Liquid chromatography separation was performed on an Agilent SB-Aq column (4.6×50 mm, 5 μm) (Agilent Technologies) with mobile phase A (0.1% formic acid in water) and mobile phase B (0.1% formic acid in acetonitrile). The flow rate was 0.3 mL/min. The linear gradient was as follows: 0-3 min, 100% mobile phase A; 10-15 min, 2% mobile phase A; 15.5-21 min, 100% mobile phase A. The autosampler was set at 5° C. The injection volume was 15 μL. Mass spectra were acquired with both positive electrospray ionization at the ion spray voltage of 5500 V and negative electrospray ionization at the ion spray voltage of −4500 V. The source temperature was 450° C. The curtain gas, ion source gas 1, and ion source gas 2 were 33, 50, and 65, respectively. Multiple reaction monitoring was used to quantify the metabolites. Power analysis was not used to determine the number of replicates. Error bars represent the standard error of the mean of three biological replicates. The statistical significance of the accumulation was determined using a two sample Welch's t test (one-tailed test, assuming unequal variance) relative to the negative controls. All compounds evaluated in the biological assays were >95% pure.

P. aeruginosa PA14 = assay: MIC, P. aeruginosa PA14; type: cell-based, Pseudomonas aeruginosa; conditions: for MIC: Pseudomonas aeruginosa
Method: as §1

P. aeruginosa PA1280 = assay: MIC, P. aeruginosa PA1280; type: cell-based, Pseudomonas aeruginosa; conditions: for MIC: Pseudomonas aeruginosa
Method: as §1

P. aeruginosa PAO1 [4] = assay: LC-MS/MS whole-cell accumulation assay, P. aeruginosa PAO1; type: cell-based, Pseudomonas aeruginosa
Method: as §2, §3
MBN assay. Assays measuring permeabilization by polymyxin B nonapeptide (PMBN) were performed as above, with the addition of 8 μg/mL PMBN immediately before the compound of interest was added.

P. aeruginosa PAΔ6 [5] = assay: MIC, efflux pump knockout strain PAΔ6; type: cell-based, Pseudomonas aeruginosa
Method: as §1

WT PA = conditions: retrospective literature analysis (Table 6); cited from earlier work
PA efflux KO = conditions: retrospective literature analysis (Table 6); cited from earlier work
WT EC = conditions: retrospective literature analysis (Table 6); cited from earlier work
tolC EC = conditions: retrospective literature analysis (Table 6); cited from earlier work
P. aeruginosa PAΔ6 [6] = assay: LC-MS/MS whole-cell accumulation assay, PAΔ6; type: cell-based, Pseudomonas aeruginosa; conditions: FIG. 1c
Method: as §2, §3

[7] = PAO1, CLSI (Table 8), read-out: P. aeruginosa PAO1 MIC
[8] = WT P. aeruginosa PAO1, MH broth (Table 1), read-out: PAO1 MIC
[9] = PA14, MH broth (Table 4), read-out: PA14 MIC
[10] = PA1280, MH broth (Table 4), read-out: PA1280 MIC

Row | SMILES | MIC (P. aeruginosa PAO1 [1]; [7]) | MIC (E. coli MG1655 [2]) | EC Accumulation (FA) (E. coli MG1655 [3]) | PAO1 MIC (P. aeruginosa PAO1 [1]; MH broth (Table 4)) | MIC (P. aeruginosa PAO1 [1]; [8]) | MIC (P. aeruginosa PA14; [9]) | MIC (P. aeruginosa PA1280; [10]) | also measured
1 | CC(=O)O[C@H]1C[C@@]2(C)[C@@H](C[C@@H](O)[C@H]3[C@@]4(C)CC[C@@H](O)[C@@H](C)[C@@H]4CC[C@@]32C)/C1=C(\CCC=C(C)C)C(=O)O/N=C(\N)CN [FA prodrug 1] | > 256 µg/mL | > 256 µg/mL | 850 ± 61 nmol/1012 CFUs | – | – | – | – | –
2 | CC(=O)O[C@H]1C[C@@]2(C)[C@@H](C[C@@H](O)[C@H]3[C@@]4(C)CC[C@@H](O)[C@@H](C)[C@@H]4CC[C@@]32C)/C1=C(\CCC=C(C)C)C(=O)O/N=C(\N)CNCCCN [FA prodrug 2] | > 256 µg/mL | 256 µg/mL (≈ 397 µM) | 969 ± 71 nmol/1012 CFUs | – | – | – | – | –
3 | CC(=O)O[C@H]1C[C@@]2(C)[C@@H](C[C@@H](O)[C@H]3[C@@]4(C)CC[C@@H](O)[C@@H](C)[C@@H]4CC[C@@]32C)/C1=C(\CCC=C(C)C)C(=O)O/N=C(\N)CNCCCNCCCN [FA prodrug 3] | 128 µg/mL (≈ 182 µM) | 32 µg/mL (≈ 45.6 µM) | 1764 ± 37 nmol/1012 CFUs | – | – | – | – | –
4 | CC(=O)NC[C@H]1CN(c2ccc(N3CCOCC3)c(F)c2)C(=O)O1 [Linezolid] | – | – | – | >512 µg/mL | > 512 µg/mL | > 512 µg/mL | > 512 µg/mL | –
5 | C[C@@H](O)[C@H]1C(=O)N2C(C(=O)O)=C(S[C@@H]3CN[C@H](C(=O)N(C)C)C3)[C@H](C)[C@H]12 [Meropenem] | – | – | – | 0.25 µg/mL | 0.25 µg/mL (≈ 0.652 µM) | 0.5 µg/mL (≈ 1.3 µM) | 0.5 µg/mL (≈ 1.3 µM) | accumulation in PAO1 (in words) (P. aeruginosa PAO1 [4]; FIG. 1a / FIG. 5): minimal accumulation
6 | CO[C@@H]1[C@@H](OC(N)=O)[C@@H](O)[C@H](Oc2ccc3c(O)c(NC(=O)c4ccc(O)c(CC=C(C)C)c4)c(=O)oc3c2C)OC1(C)C [Novobiocin] | – | – | – | >512 µg/mL | > 512 µg/mL | > 512 µg/mL | > 512 µg/mL | PAO1 + PMBN MIC (P. aeruginosa PAO1 [1]; co-treatment of 8 μg/mL of PMBN, MH broth): 1 µg/mL; change of accumulation upon membrane permeabilization (P. aeruginosa PAO1 [4]; treatment with PMBN, FIG. 1b): significant increase in accumulation
7 | CN(C)[C@@H]1C(=O)C(C(N)=O)=C(O)[C@@]2(O)C(=O)C3=C(O)c4c(O)cccc4[C@@](C)(O)[C@H]3C[C@@H]12 [Tetracycline] | – | – | – | 16 µg/mL | – | – | – | PAO1 MIC (P. aeruginosa PAO1 [1]; WT P. aeruginosa PAO1, MH broth (Table 1)): 16 µg/mL; WT MIC (P. aeruginosa PAO1 [1]; WT P. aeruginosa PAO1, MH or LB broth (Table 7)): 16 µg/mL; PAΔ6 MIC (P. aeruginosa PAΔ6 [5]; MH or LB broth (Table 7)): 0.25 µg/mL; Fold change (MIC) (P. aeruginosa PAΔ6 [5]; WT MIC / PAΔ6 MIC (Table 7)): 64; PA14 MIC (P. aeruginosa PA14; MH broth (Table 4)): 8 µg/mL; PA1280 MIC (P. aeruginosa PA1280; MH broth (Table 4)): 32 µg/mL; WT Accum (P. aeruginosa PAO1 [4]; WT PAO1, ± s.e.m. (Table 7)): 452 ± 5 nmol/10^12 CFUs; WT PA MIC (WT PA): 16 µg/mL; PA efflux KO MIC (PA efflux KO): 0.25 µg/mL; WT EC MIC (WT EC): 1 µg/mL; tolC EC MIC (tolC EC): 0.25 µg/mL
8 | CN(C)c1cc(NC(=O)CNC(C)(C)C)c(O)c2c1C[C@H]1C[C@H]3[C@H](N(C)C)C(O)=C(C(N)=O)C(=O)[C@@]3(O)C(O)=C1C2=O [Tigecycline] | – | – | – | 1 µg/mL | 1 µg/mL (≈ 1.71 µM) | 2 µg/mL (≈ 3.41 µM) | 16 µg/mL (≈ 27.3 µM) | accumulation relative to tetracycline (P. aeruginosa PAO1 [4]; FIG. 1a): accumulates to a higher extent than tetracycline; WT PA MIC (WT PA): 1 µg/mL; PA efflux KO MIC (PA efflux KO): 0.125 µg/mL; WT EC MIC (WT EC): 0.5 µg/mL; tolC EC MIC (tolC EC): 0.125 µg/mL
9 | CN[C@H](CC(C)C)C(=O)N[C@H]1C(=O)N[C@@H](CC(N)=O)C(=O)N[C@H]2C(=O)N[C@H]3C(=O)N[C@H](C(=O)N[C@H](C(=O)O)c4cc(O)cc(O)c4-c4cc3ccc4O)[C@H](O)c3ccc(c(Cl)c3)Oc3cc2cc(c3O[C@@H]2O[C@H](CO)[C@@H](O)[C@H](O)[C@H]2O[C@H]2C[C@](C)(N)[C@H](O)[C@H](C)O2)Oc2ccc(cc2Cl)[C@H]1O [Vancomycin] | – | – | – | >512 µg/mL | – | – | – | MIC (P. aeruginosa PAO1 [1]; PAO1, read-out: PAO1 MIC): > 512 µg/mL; MIC (P. aeruginosa PAO1 [1]; PAO1, read-out: WT MIC): > 512 µg/mL; Fold change (P. aeruginosa PAΔ6 [5]; MIC ratio WT PAO1 / PAΔ6 (Table 2)): 1; PAΔ6 MIC (P. aeruginosa PAΔ6 [5]; efflux pump KO strain, MH or LB broth (Table 2)): >512 µg/mL; MIC (P. aeruginosa PA14; PA14, read-out: PA14 MIC): > 512 µg/mL; MIC (P. aeruginosa PA1280; PA1280, read-out: PA1280 MIC): > 512 µg/mL; change of accumulation in efflux pump knockout PAΔ6 versus WT PAO1 (P. aeruginosa PAΔ6 [6]): no change in accumulation
